From patent EP4711364A1, “FUSED PYRROLE RING OR FUSED PYRIDINE RING COMPOUND” (Pharmaengine, Inc., priority 2023, dated 2024) come the findings set out here.

In one assay the test system is HCC1569. In words: Cell Proliferation Assay (CellTiter-Glo). The assay is classed as cell-based. As to conditions: Homo sapiens, 168 h, CCNE1-amplified breast cancer cell line HCC1569, incubated for 7 days. On the procedure: The sensitivity of cancer cell lines with normal or elevated CCNE1 levels to test compounds was evaluated in a cell proliferation assay. Cell lines were maintained in ATCC-recommended culture media supplemented with 10% FBS and 1% penicillin/streptomycin in a humidified 5% CO2 incubator. All test compounds were stored as 20 mM DMSO stock solutions.
On Day 0, CCNE1-wild type (wt) and CCNE1-amplified (amp) cells were seeded into 384-well plates and incubated for 16 to 24 hours in a humidified 5% CO2 incubator. On Day 1, test compounds were dispensed into wells at specified concentrations (n=2), with DMSO volume normalized to the highest concentration. Plates with compound-treated cells were incubated for 7 days in a humidified 5% CO2 incubator.
On Day 7, plates were removed from the incubator and equilibrated to room temperature. Relative inhibition was assessed by adding CellTiter-Glo reagent. Data were plotted as a percentage of the DMSO control for each compound in each cell line. IC50 values were calculated using a four-parameter nonlinear regression model (GraphPad Prism). Table 1: Cell viability data
In general terms: Cellular ATP, detected with luciferase, serves as a proxy for viable cell number.

For assay [1], the target named is T1, NanoLuc-PKMYT1 fusion construct (Homo sapiens, UniProt Q99640).
T1 construct: expressed in transfected cells; host or cells: HEK293 (transient expression)
T1 sequence (Q99640 1-499): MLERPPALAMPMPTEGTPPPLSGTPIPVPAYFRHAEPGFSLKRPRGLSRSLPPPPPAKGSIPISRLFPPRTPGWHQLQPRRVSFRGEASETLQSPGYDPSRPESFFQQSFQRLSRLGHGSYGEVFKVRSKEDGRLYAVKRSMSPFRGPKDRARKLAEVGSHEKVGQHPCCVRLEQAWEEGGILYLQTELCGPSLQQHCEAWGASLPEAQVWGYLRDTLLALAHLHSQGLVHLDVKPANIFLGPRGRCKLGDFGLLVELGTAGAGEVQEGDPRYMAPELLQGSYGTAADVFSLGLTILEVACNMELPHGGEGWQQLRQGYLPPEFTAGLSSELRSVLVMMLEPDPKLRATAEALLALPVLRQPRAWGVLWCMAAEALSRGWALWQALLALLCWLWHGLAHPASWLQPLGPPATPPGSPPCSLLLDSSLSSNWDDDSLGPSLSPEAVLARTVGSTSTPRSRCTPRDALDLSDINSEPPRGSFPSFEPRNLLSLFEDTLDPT
In words: cell-based. The assay is classed as binding. The following applies: HEK293 cell lines transiently expressing NanoLuc-PKMYT1; NanoBRET tracer; test compounds for 2 hours. On the procedure: HEK293 cell lines transiently expressing the NanoLuc-PKMYT1 fusion construct were seeded into wells of a 3 84-well plate. Cells were pretreated with NanoBRET tracer, then treated with test compounds for 2 hours. BRET signals were measured on an Envision multimode plate reader at 450 nm and 610 nm. IC50 values were calculated, and IC50 curves were plotted using GraphPad Prism with a four-parameter nonlinear regression model.
A general note: In BRET a luciferase serves as donor, and the signal depends on an acceptor being close.

With `Cc1cc2c(C(N)=O)c(N)n(-c3c(C)ccc(O)c3C)c2nc1C` [Rp6306, reference compound], in the assay with HCC1569, it took 18 nM to reach half-maximal inhibition (IC50). That is a double-digit nanomolar value.

`Cc1ccc2[nH]ncc2c1-n1c(N)c2c3c(c(C)c(C)nc31)C=CNC2=O` [Compound 126]: the IC50 is 5.5 nM in assay [1] and 666 nM in the assay with HCC1569.

As for `Cc1nc2c3c(c1C)C=CNC(=O)c3c(N)n2-c1c(C)c(F)cc2[nH]ncc12` [Compound 138], the IC50 was 19.8 nM in assay [1] and greater than 1000 nM in the assay on HCC1569.

As to `Cc1nc2c3c(c1C)C=CNC(=O)c3c(N)n2-c1c(Cl)c(F)cc2[nH]ncc12` [Compound 137], the figures for the IC50 (in assay [1]; with HCC1569) were 22.5 nM and 566 nM, respectively.

For `Cc1nc2c3c(c1C)C=CNC(=O)c3c(N)n2-c1c(Cl)cc(F)c2[nH]ncc12` [Compound 136], the IC50 in assay [1] is 21.6 nM; in the assay with HCC1569 it was greater than 1000 nM.

The IC50 is the concentration that inhibits the measured activity by half. A lower IC50 goes with higher potency.
